Test results: patent US20210236539A1, “METHOD OF PROPHYLAXIS OF ZIKA VIRUS INFECTION” (priority 2016, published 2021)

What was measured:
Dengue Type 2 virus = assay: Activity against Dengue Type 2 virus (DSP0196); assay type: cell-based
Method: (§1) The activity of dendrimeric compounds against Dengue virus (D) and West Nile Fever virus (WNF) was tested.
b) The compound [BHAlys] [Lys]16 [CSNH-4-Ph(SO3Na)]32 (SPL compound 2792) was tested for activity against Dengue Type 2 virus (DSP0196). (the compound has a sulfonic acid- or sulfonate-containing moiety which is […]

West Nile Fever virus = assay: Activity against West Nile Fever virus (DSP0114), 4 concentration assay; assay type: cell-based
Method: as §1
a) The compound [BHAlys][Lys]16[CONH-Ph-3,5-(SO3Na)2]32 (SPL compound 7674) was tested for activity against West Nile Fever virus (DSP0114) (the compound has a sulfonic acid- or sulfonate-containing moiety which is
A 4 concentration assay was used. The positive control was interferon-alpha.

Substance: [BHAlys] [Lys]16 [CSNH-4-Ph(SO3Na)]32 [SPL compound 2792]
- activity against Dengue Type 2 virus (in words) (Dengue Type 2 virus): not active
- EC50 NR (Dengue Type 2 virus; Dengue Type 2 virus, NR readout): 50.3 µg/mL
- EC50 VIS (Dengue Type 2 virus; Dengue Type 2 virus, VIS readout): > 100 µg/mL

Substance: [BHAlys][Lys]16[CONH-Ph-3,5-(SO3Na)2]32 [SPL compound 7674]
- activity against West Nile Fever virus (in words) (West Nile Fever virus): not active
- EC50 NR (West Nile Fever virus; West Nile Fever virus, NR readout): 34 µg/mL
- EC50 VIS (West Nile Fever virus; West Nile Fever virus, VIS readout): 22 µg/mL
